Legend:
Assay type in all cases: in vivo
[1] = test system: Tomato (breed: Momotaro); test: Evaluation test for relief effects of high temperature injury on tomato; settings: sprayed on stem and leaf, 2 days 30° C., then 6 days 40° C. daylight/30° C. dark, vs solvent only
Method: N,N-dimethylformamide based solutions were prepared according to the formulations shown in Table 3 to give chemical solutions for the tests.
Tomato (breed: Momotaro) grown up to the 2.5 leaf stage in a greenhouse was prepared.
The above chemical solution was sprayed to the stem and leaf parts of the above tomato nursery plants in a sufficient amount, and then air dried. They were allowed to grow at 30° C. for 2 days under conditions of 16 hours under a daylight condition and 8 hours under a dark condition. Then, they were allowed to grow for 6 days under conditions of 16 hours under a daylight condition at 40° C. and 8 hours under a dark condition at 30° C.
(§1) Disorders were evaluated by 11 levels of disorder indices from 0 (no disorders) to 10 (withering to death).
High temperature injury relief percentages as compared with a region treated with solvent DMF only (Chemical solution 3) were computed by the following formula.
High temperature injury relief percentage=((disorder index of region treated with solvent only)−(disorder index of each treatment region))/(disorder index of region treated with solvent only)×100

[2] = test system: Cucumber nursery plants (breed: Sagamihanjiro); test: Evaluation test for relief effects of low temperature injury on cucumber; settings: spray, 2 days 25° C., then 9 days 10° C. daylight/7° C. dark, vs solvent only
Method: N,N-dimethylformamide based solutions were prepared according to the formulations shown in Tables 5 to give chemical solutions for the tests.
Cucumber nursery plants (breed: Sagamihanjiro) grown up to the 1.5 leaf stage in a greenhouse was prepared.
The above chemical solution was sprayed to the stem and leaf parts of the above cucumber nursery plants in a sufficient amount, and then air dried. They were allowed to grow at 25° C. for 2 days under conditions of 16 hours under a daylight condition and 8 hours under a dark condition. Then, they were allowed to grow for 9 days under conditions of 16 hours under a daylight condition at 10° C. and 8 hours under a dark condition at 7° C.
as §1
Low temperature injury relief percentages as compared with a region treated with solvent DMF only (Chemical solution 3) were computed by the following formula.
Low temperature injury relief percentage=((disorder index of region treated with solvent only)−(disorder index of each treated region))/(disorder index of region treated with solvent only)×100

[3] = test system: Eggplant (breed: Senryo 2 gou); test: Evaluation test for relief effects of low temperature injury on eggplant; settings: 13° C. daylight/8° C. dark, 15 days after spray
Method: Eggplant (breed: Senryo 2 gou, 3 reprications) grown up to the 4 to 6 leaf stage in a greenhouse was prepared.
A water dispersible granule of 30% ascorbyl palmitate and pyraclostrobin dissolved to 40% with N,N-dimethylformamide were diluted with tap water to a concentration described in Table 6, and the diluted solution was sprayed over the whole nursery plants in a sufficient amount. After air dried, they were allowed to grow for 1 day under conditions of 16 hours under a daylight condition at 18° C. and 8 hours under a dark condition at 13° C., and then allowed to grow under conditions of 16 hours under a daylight condition at 13° C. and 8 hours under a dark condition at 8° C. A degree of disorder was investigated at the elapsed time of 15 days after the spray treatment.
Disorders were evaluated by 4 levels of disorder indices of 0 (no color change), 1 (discolored up to ¼ of the whole), 2 (discolored up to ½ of the whole), 3 (discolored at ½ or more of the whole) with reference to the area of a discolored portion in an expanded leaf after treatment.
(§2) Injury relief percentage=((disorder index of untreated region)−(disorder index of each treated region))/(disorder index of untreated region)×100

[4] = test system: Tomato (breed: Reiryo); test: Evaluation test for relief effects of strong light injury on tomato; settings: summer blazing sun, 4 days after spraying
Method: Tomato (breed: Reiryo, 2 reprications) grown up to the two leaf stage in a greenhouse was prepared.
A water dispersible granule of 30% of ascorbyl palmitate and pyraclostrobin dissolved to 40% N,N-dimethylformamide were diluted with tap water to each of the concentrations described in Table 9, and the diluted solution was sprayed over the whole nursery plants in a sufficient amount. After air dried, they were exposed to strong light under summer blazing sun. A degree of disorder was investigated at the elapsed time of 4 days after the spraying.
For disorder, a degree of necrosis due to light effects was evaluated by 11 levels of disorder indices from 0 (no necrosis) to 10 (withering to death). From this, disorder relief percentages were computed by the following formula.
as §2

[5] = test system: Soybean (breed: Enrei); test: Evaluation test for relief effects of flood injury on soybean; settings: flood from 2 days, raw weight 11 days after spray
Method: Soybean (breed: Enrei, 2 reprications) grown up to the two leaf stage in a greenhouse was prepared.
A water dispersible granule of 30% ascorbyl palmitate and pyraclostrobin adjusted to 40% with N,N-dimethylformamide were diluted with tap water to a predetermined concentration, and the diluted solution was sprayed in a sufficient amount. They were subjected to flood conditions up to immediately below the cotyledon from 2 days after the spray treatment, and the raw weights of an above ground part and a root part of soybean were each measured at the elapsed time of 11 days after the spray treatment. From this, injury relief percentages were computed by the following formula.
Flood injury relief percentage=((raw weight of each treatment region)−(raw weight of untreated region))/(raw weight of untreated region)×100

[6] = test system: Cucumber (breed: Sagamihanjirohushinari); test: Evaluation test for relief effects of acidity problem on cucumber; settings: hydroponic medium pH 4 from 2 days, leaf stage 17 days after spray
Method: Cucumber (breed: Sagamihanjirohushinari, 2 reprications) hydroponically grown up to the two leaf stage in a 100 ml flask was prepared.
A water dispersible granule of 30% ascorbic acid palmitate and pyraclostrobin adjusted to 40% with N,N-dimethylformamide were diluted with tap water to a predetermined concentration, and the diluted solution was sprayed over the whole nursery plants in a sufficient amount. The water culture medium was adjusted to pH 4 with 1 N hydrochloric acid at the elapsed time of 2 days after the spray treatment, and the above cucumber was continuously allowed to grow hydroponically. Leaf stage of the cucumber was investigated 17 days after the spray treatment. From this, disorder relief percentages were computed by the following formula.
Acidity problem relief percentage=((leaf stage of each treatment region)−(leaf stage of untreated region))/(leaf stage of untreated region)×100

[7] = test system: Soybean (breed: Enrei); test: Evaluation test for relief effects of salt injury on soybean; settings: 0.1% aqueous sodium chloride from 2 days, raw weight 11 days after spray
Method: Soybean (breed: Enrei, 2 reprications) hydroponically grown up to the two leaf stage in a greenhouse was prepared.
A water dispersible granule of 30% ascorbic acid palmitate and pyraclostrobin adjusted to 40% with N,N-dimethylformamide were diluted with tap water to a predetermined concentration, and the diluted solution was sprayed over the whole nursery plants in a sufficient amount. After air dried, they were cultivated with normal irrigation in a greenhouse. Then, the irrigation conditions were changed to 0.1% aqueous sodium chloride solution in 2 cm depth from 2 days after the spraying, and cultivated up to 11 days after the spray treatment. Then the raw weights of an aerial part and a root part were each measured. From this, injury relief percentages were computed by the following formula.
Salt injury relief percentage=((raw weight of each treatment region)−(raw weight of untreated region))/(raw weight of untreated region)×100

[8] = ascorbyl palmitate 800 ppm in DMF
[9] = ascorbyl palmitate 1000 ppm spray

SMILES | relief percents of high-temperature injury (%) ([1]; Pyraclostrobin 40 ppm in DMF) | relief percents of low-temperature injury(%) ([2]; Pyraclostrobin 40 ppm in DMF) | relief percents of low-temperature injury(%) ([3]; Pyraclostrobin 50 ppm spray) | relief percents of strong light injury (%) ([4]; Pyraclostrobin 50 ppm spray) | relief percents of flood injury in aerial part(%) ([5]; Pyraclostrobin 50 ppm spray) | relief percents of flood injury in root(%) ([5]; Pyraclostrobin 50 ppm spray) | relief percents of acidity problem(%) ([6]; Pyraclostrobin 50 ppm spray) | relief percents of salt injury in aerial part(%) ([7]; Pyraclostrobin 50 ppm spray) | relief percents of salt injury in root(%) ([7]; Pyraclostrobin 50 ppm spray) | relief percents of high-temperature injury (%) [1, 8] [%] | relief percents of low-temperature injury(%) [2, 8] [%] | relief percents of low-temperature injury(%) [3, 9] [%] | relief percents of strong light injury (%) [4, 9] [%] | relief percents of flood injury in aerial part(%) [5, 9] [%] | relief percents of flood injury in root(%) [5, 9] [%] | relief percents of acidity problem(%) [6, 9] [%] | relief percents of salt injury in aerial part(%) [7, 9] [%] | relief percents of salt injury in root(%) [7, 9] [%]
COC(=O)N(OC)c1ccccc1COc1ccn(-c2ccc(Cl)cc2)n1 [Pyraclostrobin, reference compound] | 35 | 19 | 13.0 | 40 | 0.0 | 3.2 | 15.6 | 3.2 | 2.5 |  |  |  |  |  |  |  |  | 
CCCCCCCCCCCCCCCC(=O)OC[C@H](O)[C@H]1OC(=O)C(O)=C1O [ascorbyl palmitate] |  |  |  |  |  |  |  |  |  | 57 | 25 | 13.0 | 50 | 2.8 | 20.4 | 15.6 | 20.4 | 22.2

Reference: patent publication US20150126368A1, “METHOD OF PROVIDING PLANT WITH STRESS RESISTANCE” (Nippon Soda Co., Ltd., priority 2012, published 2015)
